Several values for one entry are separate records, joined by “and”; a condition that tells them apart may be missing. Identical values can stand only once. Inconclusive results and toxic doses are left out. The calls were made as follows: active = survival T/C of 150% or more; inactive = T/C below 125% in these data.
System: P388 leukemia ip, CD2F1 mice, survival T/C
Test: NCI In Vivo Anticancer Drug Screen. Data for tumor model P388 Leukemia (intraperitoneal) in CD2F1 (CDF1) mice
Settings: endpoint: median survival time, higher = longer survival
In short: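 Mice carrying the transplanted tumor received test compound or vehicle. Survival was recorded in each group, and the value is the treated-group measurement divided by that of the vehicle-treated control group.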

[1] = dose: 50.0 mg/kg/injection, schedule: Q01DX009 (ip), vehicle: Klucel (hydroxypropylcellulose) (HPC)
[2] = dose: 100.0 mg/kg/injection, schedule: Q01DX009 (ip), vehicle: Klucel (hydroxypropylcellulose) (HPC)
[3] = dose: 200.0 mg/kg/injection, schedule: Q01DX009 (ip), vehicle: Klucel (hydroxypropylcellulose) (HPC)
[4] = dose: 100.0 mg/kg/injection, schedule: Q01DX009 (ip), vehicle: saline with Tween-80
[5] = dose: 50.0 mg/kg/injection, schedule: Q01DX009 (ip), vehicle: saline
[6] = dose: 50.0 mg/kg/injection, schedule: Q01DX005 (ip), vehicle: saline with Tween-80
[7] = dose: 100.0 mg/kg/injection, schedule: Q01DX005 (ip), vehicle: saline with Tween-80

Measured: T/C

CC(=NCCCCN=C(C)c1cc(C)cc([N+](=O)[O-])c1O)c1cc(C)cc([N+](=O)[O-])c1O.[Co]
inactive: dose: 100.0 mg/kg/injection, schedule: Q05DX002 (ip), vehicle: saline with Tween-80 92 % of control | dose: 200.0 mg/kg/injection, schedule: Q05DX002 (ip), vehicle: saline with Tween-80 98 % of control | dose: 400.0 mg/kg/injection, schedule: Q05DX002 (ip), vehicle: saline with Tween-80 92 % of control

COC(=N)N(C)/N=C/c1ccccc1
inactive: dose: 100.0 mg/kg/injection, schedule: Q01DX001 (ip), vehicle: Klucel (hydroxypropylcellulose) (HPC) 114 % of control | dose: 200.0 mg/kg/injection, schedule: Q01DX001 (ip), vehicle: Klucel (hydroxypropylcellulose) (HPC) 115 % of control

Cc1nn(-c2nc(-c3ccc(Br)cc3)cs2)c(C)c1C
inactive: [1] 105 % of control | [2] 106 % of control | [3] 105 % of control

CCC(=O)NC(N)=NC#N
inactive: dose: 60.0 mg/kg/injection, schedule: Q01DX005 (ip), vehicle: saline 99 % of control | dose: 120.0 mg/kg/injection, schedule: Q01DX005 (ip), vehicle: saline 101 % of control | dose: 240.0 mg/kg/injection, schedule: Q01DX005 (ip), vehicle: saline 98 % of control

NC(=S)N/N=C1/C(=O)N(c2ccc(S(N)(=O)=O)cc2)C(=O)C1C(=O)Nc1ccc(S(N)(=O)=O)cc1 (stereo not given)
inactive: dose: 25.0 mg/kg/injection, schedule: Q04DX002 (ip), vehicle: saline with Tween-80 104 % of control | dose: 50.0 mg/kg/injection, schedule: Q04DX002 (ip), vehicle: saline with Tween-80 100 % of control | dose: 100.0 mg/kg/injection, schedule: Q04DX002 (ip), vehicle: saline with Tween-80 99 % of control and 100 % of control

C/C(C#N)=C/c1ccccc1
inactive: dose: 50.0 mg/kg/injection, schedule: Q01DX009 (ip), vehicle: saline with Tween-80 104 % of control | [4] 118 % of control

COc1ccccc1C1NC(c2ccccc2OC)C2CCCC1NC2=O (stereo not given)
inactive: dose: 100.0 mg/kg/injection, schedule: Q04DX003 (ip), vehicle: suspension in saline 98 % of control | dose: 200.0 mg/kg/injection, schedule: Q04DX003 (ip), vehicle: suspension in saline 98 % of control | dose: 400.0 mg/kg/injection, schedule: Q04DX003 (ip), vehicle: suspension in saline 98 % of control

O=C1C(Cl)=C(Oc2ccccc2Cl)C(=O)C(Cl)=C1Oc1ccccc1Cl
inactive: dose: 3.12 mg/kg/injection, schedule: Q01DX005 (ip), vehicle: Klucel (hydroxypropylcellulose) (HPC) 91 % of control and 96 % of control | dose: 6.25 mg/kg/injection, schedule: Q01DX005 (ip), vehicle: Klucel (hydroxypropylcellulose) (HPC) 98 % of control and 92 % of control | dose: 12.5 mg/kg/injection, schedule: Q01DX005 (ip), vehicle: Klucel (hydroxypropylcellulose) (HPC) 86 % of control and 87 % of control and 97 % of control | dose: 50.0 mg/kg/injection, schedule: Q01DX005 (ip), vehicle: Klucel (hydroxypropylcellulose) (HPC) 102 % of control | dose: 100.0 mg/kg/injection, schedule: Q01DX005 (ip), vehicle: Klucel (hydroxypropylcellulose) (HPC) 99 % of control | dose: 200.0 mg/kg/injection, schedule: Q01DX005 (ip), vehicle: Klucel (hydroxypropylcellulose) (HPC) 96 % of control

O=C(CBr)c1cc2c(cc1Br)OCO2
inactive: dose: 12.5 mg/kg/injection, schedule: Q01DX001 (ip), vehicle: Klucel (hydroxypropylcellulose) (HPC) 102 % of control | dose: 25.0 mg/kg/injection, schedule: Q01DX001 (ip), vehicle: Klucel (hydroxypropylcellulose) (HPC) 104 % of control | dose: 50.0 mg/kg/injection, schedule: Q01DX001 (ip), vehicle: Klucel (hydroxypropylcellulose) (HPC) 103 % of control

CCCCCCCCCCCCCC[N+]1([O-])CCCCC1
inactive: dose: 12.5 mg/kg/injection, schedule: Q01DX009 (ip), vehicle: saline 100 % of control | dose: 25.0 mg/kg/injection, schedule: Q01DX009 (ip), vehicle: saline 92 % of control | [5] 106 % of control and 91 % of control

N#CCC1(C#N)CCC(OCc2ccccc2)CC1 (stereo not given)
inactive: [5] 100 % of control and 99 % of control | dose: 100.0 mg/kg/injection, schedule: Q01DX009 (ip), vehicle: saline 100 % of control | dose: 200.0 mg/kg/injection, schedule: Q01DX009 (ip), vehicle: saline 102 % of control and 101 % of control

Cc1cc(C)n2ncc(Br)c2n1
inactive: [6] 100 % of control | [7] 100 % of control | dose: 200.0 mg/kg/injection, schedule: Q01DX005 (ip), vehicle: saline with Tween-80 94 % of control

C/C(=N\NC(=S)N1CCC(C)CC1)c1nccs1
inactive: dose: 12.5 mg/kg/injection, schedule: Q01DX005 (ip), vehicle: saline with Tween-80 106 % of control | dose: 25.0 mg/kg/injection, schedule: Q01DX005 (ip), vehicle: saline with Tween-80 116 % of control | [6] 118 % of control

O=C(OC1CSC=CSC1)c1ccccc1
inactive: [1] 104 % of control | [2] 109 % of control | [3] 110 % of control

COc1cccc(CC(=O)NCCc2ccc(OC)c(OC)c2)c1
inactive: [4] 100 % of control | dose: 200.0 mg/kg/injection, schedule: Q01DX009 (ip), vehicle: saline with Tween-80 100 % of control | dose: 400.0 mg/kg/injection, schedule: Q01DX009 (ip), vehicle: saline with Tween-80 104 % of control

CC(=O)OC1CCC2(C)C3CCC4(C)C(=CCC5(C(=O)O)CCC(C)(C)CC45)C3(C)CCC2C1(C)C (stereo not given)
inactive: dose: 0.25 mg/kg/injection, schedule: Q01DX009 (ip), vehicle: saline + Tween-80 + alcohol 97 % of control | dose: 0.5 mg/kg/injection, schedule: Q01DX009 (ip), vehicle: saline + Tween-80 + alcohol 101 % of control | dose: 1.0 mg/kg/injection, schedule: Q01DX009 (ip), vehicle: saline + Tween-80 + alcohol 106 % of control | dose: 2.0 mg/kg/injection, schedule: Q01DX009 (ip), vehicle: saline + Tween-80 + alcohol 97 % of control | dose: 4.0 mg/kg/injection, schedule: Q01DX009 (ip), vehicle: saline + Tween-80 + alcohol 106 % of control

Cn1c(=O)c2c(ncn2-c2ccc(N)cc2)n(C)c1=O
inactive: dose: 1.56 mg/kg/injection, schedule: Q01DX005 (ip), vehicle: water 95 % of control | dose: 3.12 mg/kg/injection, schedule: Q01DX005 (ip), vehicle: water 105 % of control | dose: 6.25 mg/kg/injection, schedule: Q01DX005 (ip), vehicle: other 104 % of control | dose: 6.25 mg/kg/injection, schedule: Q01DX005 (ip), vehicle: water 96 % of control | dose: 12.5 mg/kg/injection, schedule: Q01DX005 (ip), vehicle: other 106 % of control | dose: 12.5 mg/kg/injection, schedule: Q01DX005 (ip), vehicle: water 102 % of control | dose: 25.0 mg/kg/injection, schedule: Q01DX005 (ip), vehicle: other 101 % of control | dose: 50.0 mg/kg/injection, schedule: Q01DX005 (ip), vehicle: water 101 % of control

Cc1ncc2c(n1)CCC1=C2OS(=O)(=O)CC1N(C)C (stereo not given)
inactive: [6] 115 % of control | [7] 97 % of control

N#CC(=O)c1ccccc1
inactive: dose: 3.12 mg/kg/injection, schedule: Q04DX003 (ip), vehicle: saline with Tween-80 101 % of control | dose: 6.25 mg/kg/injection, schedule: Q04DX003 (ip), vehicle: saline with Tween-80 100 % of control | dose: 12.5 mg/kg/injection, schedule: Q04DX003 (ip), vehicle: saline with Tween-80 103 % of control and 105 % of control | dose: 400.0 mg/kg/injection, schedule: Q04DX003 (ip), vehicle: saline with Tween-80 101 % of control

— PubChem BioAssay AID330 (DTP/NCI, 2004)
